Data set [1] concerns Pseudomonas aeruginosa. Put plainly: Antimicrobial activity against Pseudomonas aeruginosa KCTC 1637 after 18 hrs. It counts as functional. The following applies: KCTC 1637, 18 h.
In data set [2] the test system is Staphylococcus aureus. The experiment in a line: Antimicrobial activity against methicillin-resistant Staphylococcus aureus CCARM 3090 after 18 hrs. The format is functional. The following applies: CCARM 3090, 18 h.
In data set [3] the test system is Staphylococcus epidermidis. Put plainly: Antimicrobial activity against Staphylococcus epidermidis KCTC 1617 after 18 hrs. It counts as functional. The following applies: KCTC 1617, 18 h.
The nature of data set [4]: Hemolytic activity in sheep RBC assessed as free hemoglobin level up to 256 uM by ELISA relative to control. It counts as ADME, cell-based, Ovis aries, Erythrocyte. The following applies: sheep red blood cells (erythrocytes), read-out: Activity. For orientation: ELISA stands for enzyme-linked immunosorbent assay.
Data set [5] concerns Staphylococcus aureus. The experiment in a line: Antimicrobial activity against methicillin-resistant Staphylococcus aureus CCARM 3089 after 18 hrs. It counts as functional. The following applies: CCARM 3089, 18 h.
Data set [6] deals with Escherichia coli. The experiment in a line: Antimicrobial activity against Escherichia coli KCTC 1682 after 18 hrs. It counts as functional. The following applies: KCTC 1682, 18 h.
The subject of a further data set is DNA. Put plainly: Binding affinity to Escherichia coli pBR322 DNA assessed as inhibition of DNA migration at 16 uM after 1 hr by agarose gel electrophoresis and UV spectroscopy. It counts as nucleic-acid assay.
For data set [7], the system named is Staphylococcus aureus. The experiment in a line: Antimicrobial activity against methicillin-resistant Staphylococcus aureus CCARM 3095 after 18 hrs. It counts as functional. The following applies: CCARM 3095, 18 h.
Data set [8] concerns Staphylococcus aureus. Put plainly: Induction of cytoplasmic membrane depolarization in Staphylococcus aureus KCTC 1621 at 2 to 8 times MIC concentration by DiSC3(5)-dye based fluorescence spectrophotometry. The format is functional, organism-based.
For data set [9], the system named is Staphylococcus aureus. The experiment in a line: Bactericidal activity against Staphylococcus aureus KCTC 1621 at MIC concentration after 30 mins by time kill assay. It counts as functional, organism-based.
A further data set has as its system Bacillus subtilis. The experiment in a line: Antimicrobial activity against Bacillus subtilis KCTC 3068 after 18 hrs. It counts as functional. The following applies: KCTC 3068, 18 h.
The subject of data set [10] is Staphylococcus aureus. The experiment in a line: Antimicrobial activity against Staphylococcus aureus KCTC 1621 after 18 hrs. The following applies: KCTC 1621, 18 h. The format is functional.
Data set [11] deals with Escherichia coli. The experiment in a line: Bactericidal activity against Escherichia coli KCTC 1682 at MIC concentration after 120 to 180 mins by time kill assay. The format is functional, organism-based.
In data set [12] the test system is Pseudomonas aeruginosa. Put plainly: Antimicrobial activity against multidrug-resistant Pseudomonas aeruginosa CCARM 2095 after 18 hrs. It counts as functional. The following applies: CCARM 2095, 18 h.
For data set [13], the system named is Staphylococcus aureus. The experiment in a line: Induction of membrane permeabilization in Staphylococcus aureus KCTC 1621 at 2 to 8 times MIC concentration up to 300 secs by SYTOX green uptake assay. The format is functional, organism-based.
For the next data set, the system named is Salmonella typhimurium. The experiment in a line: Antimicrobial activity against Salmonella typhimurium KCTC 1926 after 18 hrs. The format is functional, Salmonella enterica subsp. enterica serovar Typhimurium. The following applies: Salmonella enterica, KCTC 1926, 18 h.
The subject of data set [14] is Escherichia coli. The experiment in a line: Induction of membrane permeabilization in Escherichia coli KCTC 1682 assessed as PI-positive cells at 12.5 uM after 1 to 2 hrs by propidium iodide-staining based flow cytometry (reference value: 2.36%). The format is functional. A general note: In flow cytometry, cells or beads pass a laser one at a time.
In data set [15] the test system is RAW264.7. Put plainly: Cytotoxicity against mouse RAW264.7 cells at 512 uM after 48 hrs by MTT assay. It counts as cell-based. The following applies: raw264.7, 48 h. Background: Formazan colour is commonly taken as a measure of viable cells.
For the next data set, the system named is Enterococcus faecium. The experiment in a line: Antimicrobial activity against vancomycin-resistant Enterococcus faecium ATCC 51559 after 18 hrs. The following applies: ATCC 51559, 18 h. It counts as functional.
Data set [16] deals with Staphylococcus aureus. Put plainly: Induction of membrane permeabilization in Staphylococcus aureus KCTC 1621 at 2 times MIC concentration up to 300 secs by SYTOX green uptake assay. The format is functional, organism-based.
The test system of data set [17] is Escherichia coli. The experiment in a line: Induction of membrane permeabilization in Escherichia coli KCTC 1682 assessed as PI-positive cells at 4 uM after 1 to 2 hrs by propidium iodide-staining based flow cytometry (reference value: 2.36%). It counts as functional.
A short description of data set [18]: Hemolytic activity in sheep RBC assessed as free hemoglobin level at 16 uM by ELISA relative to control. It counts as ADME, cell-based, Ovis aries, Erythrocyte. The following applies: sheep red blood cells (erythrocytes), read-out: Activity.
The subject of data set [19] is RAW264.7. The experiment in a line: Cytotoxicity against mouse RAW264.7 cells at 32 uM after 48 hrs by MTT assay relative to control. The following applies: raw264.7, 48 h. The format is cell-based.
Data set [20] relates to Staphylococcus aureus. The experiment in a line: Induction of cytoplasmic membrane depolarization in Staphylococcus aureus KCTC 1621 at 2 times MIC concentration by DiSC3(5)-dye based fluorescence spectrophotometry. It counts as functional, organism-based.

SMILES strings stand for the structures. Converted amounts (≈) assume the structure as drawn. The source made the active and inactive calls. The rule behind the calls is not given here. Residues, ends and D or L forms follow the SMILES beside them.

As a reminder, the MIC is the lowest concentration that inhibits growth of the organism. Low values mean a more susceptible organism, high ones a less susceptible organism. On to `CC[C@H](C)[C@H](NC(=O)[C@@H](NC(=O)[C@H](Cc1cnc[nH]1)NC(=O)[C@H](CCCNC(=N)N)NC(=O)[C@H](C)NC(=O)[C@H](CCCNC(=N)N)NC(=O)[C@H](CC(C)C)NC(=O)[C@H](CO)NC(=O)[C@H](C)NC(=O)[C@H](CO)NC(=O)[C@H](CC(C)C)NC(=O)[C@@H](N)CC(N)=O)[C@@H](C)O)C(=O)N1CCC[C@H]1C(=O)N[C@@H](CCC(N)=O)C(=O)N[C@@H](CO)C(=O)N[C@@H](CCCNC(=N)N)C(=O)N[C@@H](CCCCN)C(=O)N[C@@H](Cc1ccccc1)C(=O)NCC(=O)N[C@@H](CCCNC(=N)N)C(=O)N[C@@H](CCCNC(=N)N)C(N)=O` (H-NLSASLRARHTIPQSRKFGRR-NH2), for which the MIC against Pseudomonas aeruginosa [1] came out at 6.3 µM (≈ 15.4 µg/mL); against Staphylococcus aureus [2], 50 µM (≈ 123 µg/mL); in data set [3] it was 6.3 µM (≈ 15.4 µg/mL); against Staphylococcus aureus [5], 25 µM (≈ 61.3 µg/mL); in the data set on Escherichia coli [6] it was 6.3 µM (≈ 15.4 µg/mL); in the data set with Staphylococcus aureus [7], 25 µM (≈ 61.3 µg/mL). In addition, the MIC with Bacillus subtilis stood at 12.5 µM (≈ 30.6 µg/mL); with Staphylococcus aureus [10], 12.5 µM (≈ 30.6 µg/mL); against Pseudomonas aeruginosa [12], 12.5 µM (≈ 30.6 µg/mL); with Salmonella typhimurium it was 6.3 µM (≈ 15.4 µg/mL); with Enterococcus faecium it was 50 µM (≈ 123 µg/mL). The hemolysis in data set [4] is < 1%. In addition, the result in the data set with DNA, with Staphylococcus aureus [9] and in the data set with Escherichia coli [11] was Active. Moreover, the outcome with Staphylococcus aureus [8] and in the data set on Staphylococcus aureus [13] was inactive. For the same molecule, the figures for the Activity with Escherichia coli [14] and in the data set on RAW264.7 [15] were 3.66% and “Non-Toxic”, respectively.

For `CC[C@H](C)[C@H](NC(=O)CN)C(=O)NCC(=O)N[C@@H](C)C(=O)N[C@H](C(=O)N[C@@H](CC(C)C)C(=O)N[C@@H](CCCCN)C(=O)N[C@H](C(=O)N[C@@H](CC(C)C)C(=O)N[C@H](C(=O)N[C@H](C(=O)NCC(=O)N[C@@H](CC(C)C)C(=O)N1CCC[C@H]1C(=O)N[C@@H](C)C(=O)N[C@@H](CC(C)C)C(=O)N[C@H](C(=O)N[C@@H](CO)C(=O)N[C@@H](Cc1c[nH]c2ccccc12)C(=O)N[C@H](C(=O)N[C@@H](CCCCN)C(=O)N[C@@H](CCCNC(=N)N)C(=O)N[C@@H](CCCCN)C(=O)N[C@@H](CCCNC(=N)N)C(=O)N[C@@H](CCC(N)=O)C(=O)N[C@@H](CCC(N)=O)C(N)=O)[C@@H](C)CC)[C@@H](C)CC)[C@@H](C)O)[C@@H](C)O)C(C)C)C(C)C` [MELITTIN], the result with Staphylococcus aureus [16] and in the data set on Staphylococcus aureus [20] was Active. Moreover, the Activity with Escherichia coli [17] is listed as 55.5%; with RAW264.7 [19], 100%. Further, the hemolysis at 16 µM in data set [18] worked out at 63%. Moreover, in the data set with Staphylococcus aureus [13], the outcome was inactive.

The record behind these values is ChEMBL document CHEMBL4257591 (J Med Chem, 2018).
